From the NIST ThermoML archive (doi:10.1016/j.jct.2006.03.020)
Numbers after ± are expanded uncertainties.

Legend:
[1] = 298.15 K; 101.33 kPa; Liquid
[2] = excess molar enthalpy (molar enthalpy of mixing); xn = mol fraction of the nth substance listed; conditions: 298.15 K, 101 kPa, Liquid, Flow calorimetry

Question: With C=CCCCC [hex-1-ene] as the compound, how does the mass density [1] read?
Answer: Its mass density is 668.73 ± 1.4 kg/m3.

Question: With C=CCCCC [hex-1-ene] + C1CCOC1 as the compound, how does the excess molar enthalpy ([2]; x1 = 0.0501) read?
Answer: Its excess molar enthalpy is 0.0161 ± 0.000454 kcal/mol.

Question: What about the excess molar enthalpy ([2]; x1 = 0.097) of the same compound?
Answer: Its excess molar enthalpy is 0.0304 ± 0.000669 kcal/mol.

Question: What about the excess molar enthalpy ([2]; x1 = 0.1507) of the same compound?
Answer: Its excess molar enthalpy is 0.0446 ± 0.000884 kcal/mol.

Question: And the excess molar enthalpy ([2]; x1 = 0.1994)?
Answer: Its excess molar enthalpy is 0.055 ± 0.00105 kcal/mol.

Question: And the excess molar enthalpy ([2]; x1 = 0.2501)?
Answer: Its excess molar enthalpy is 0.0649 ± 0.00122 kcal/mol.

Question: And the excess molar enthalpy ([2]; x1 = 0.3003)?
Answer: Its excess molar enthalpy is 0.0729 ± 0.00136 kcal/mol.

Question: What about the excess molar enthalpy ([2]; x1 = 0.3499) of the same compound?
Answer: Its excess molar enthalpy is 0.0788 ± 0.00146 kcal/mol.

Question: What about the excess molar enthalpy ([2]; x1 = 0.3999) of the same compound?
Answer: The excess molar enthalpy was 0.0834 ± 0.00153 kcal/mol.

Question: And the excess molar enthalpy ([2]; x1 = 0.45)?
Answer: Its excess molar enthalpy is 0.0859 ± 0.00158 kcal/mol.

Question: And the excess molar enthalpy ([2]; x1 = 0.4977)?
Answer: Its excess molar enthalpy is 0.0876 ± 0.0016 kcal/mol.

Question: And the excess molar enthalpy ([2]; x1 = 0.5494)?
Answer: The excess molar enthalpy was 0.0869 ± 0.0016 kcal/mol.

Question: What about the excess molar enthalpy ([2]; x1 = 0.6006) of the same compound?
Answer: Its excess molar enthalpy is 0.0844 ± 0.00155 kcal/mol.

Question: And the excess molar enthalpy ([2]; x1 = 0.649)?
Answer: The excess molar enthalpy was 0.0807 ± 0.00148 kcal/mol.

Question: And the excess molar enthalpy ([2]; x1 = 0.6905)?
Answer: Its excess molar enthalpy is 0.0761 ± 0.00141 kcal/mol.

Question: What about the excess molar enthalpy ([2]; x1 = 0.7499) of the same compound?
Answer: Its excess molar enthalpy is 0.0675 ± 0.00127 kcal/mol.

Question: And the excess molar enthalpy ([2]; x1 = 0.7999)?
Answer: Its excess molar enthalpy is 0.0587 ± 0.00112 kcal/mol.

Question: What about the excess molar enthalpy ([2]; x1 = 0.8501) of the same compound?
Answer: Its excess molar enthalpy is 0.0471 ± 0.000932 kcal/mol.

Question: What about the excess molar enthalpy ([2]; x1 = 0.8995) of the same compound?
Answer: Its excess molar enthalpy is 0.0335 ± 0.000717 kcal/mol.

Question: And the excess molar enthalpy ([2]; x1 = 0.95)?
Answer: The excess molar enthalpy was 0.018 ± 0.000478 kcal/mol.

Question: For COC(C)(C)C [2-methoxy-2-methylpropane], which mass density [1] is on record?
Answer: Its mass density is 735.99 ± 0.74 kg/m3.

Question: For CC1CCCO1 (stereo not drawn) [2-methyltetrahydrofuran], which mass density [1] is on record?
Answer: Its mass density is 848.1 ± 0.89 kg/m3.

Question: Which mass density [1] does the source give for C1CCOC1 [tetrahydrofuran] here?
Answer: Its mass density is 882.09 ± 0.8 kg/m3.
